Laboratory results as given in patent US8859569B2, “Substituted annellated pyrimidines and use thereof” (Bayer Pharma Aktiengesellschaft, priority 2011, dated 2014).

Key:
[1] = target: T1, recombinant guanylate cyclase reporter cell line (Rattus norvegicus, UniProt P19686+P20595); experiment: Action on recombinant guanylate cyclase reporter cell line; format: cell-based
T1 construct: expressed in transfected cells
T1 sequence (P20595 1-619): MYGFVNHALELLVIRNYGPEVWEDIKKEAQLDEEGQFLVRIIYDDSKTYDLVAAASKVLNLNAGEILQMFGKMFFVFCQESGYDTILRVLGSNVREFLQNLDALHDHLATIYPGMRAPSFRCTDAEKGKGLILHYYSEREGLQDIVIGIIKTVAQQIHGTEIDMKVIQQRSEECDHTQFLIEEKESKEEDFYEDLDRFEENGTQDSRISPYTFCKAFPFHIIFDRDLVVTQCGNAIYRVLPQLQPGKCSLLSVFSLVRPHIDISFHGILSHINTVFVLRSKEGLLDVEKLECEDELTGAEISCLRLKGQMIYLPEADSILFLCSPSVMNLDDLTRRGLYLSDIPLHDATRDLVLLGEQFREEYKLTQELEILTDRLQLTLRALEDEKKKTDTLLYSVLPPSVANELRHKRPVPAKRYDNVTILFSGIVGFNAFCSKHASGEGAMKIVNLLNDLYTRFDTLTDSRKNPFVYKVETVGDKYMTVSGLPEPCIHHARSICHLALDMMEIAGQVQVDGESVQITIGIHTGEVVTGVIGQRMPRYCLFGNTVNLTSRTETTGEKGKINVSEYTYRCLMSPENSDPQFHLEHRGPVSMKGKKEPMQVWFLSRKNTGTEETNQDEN
T1 sequence (P19686 1-690): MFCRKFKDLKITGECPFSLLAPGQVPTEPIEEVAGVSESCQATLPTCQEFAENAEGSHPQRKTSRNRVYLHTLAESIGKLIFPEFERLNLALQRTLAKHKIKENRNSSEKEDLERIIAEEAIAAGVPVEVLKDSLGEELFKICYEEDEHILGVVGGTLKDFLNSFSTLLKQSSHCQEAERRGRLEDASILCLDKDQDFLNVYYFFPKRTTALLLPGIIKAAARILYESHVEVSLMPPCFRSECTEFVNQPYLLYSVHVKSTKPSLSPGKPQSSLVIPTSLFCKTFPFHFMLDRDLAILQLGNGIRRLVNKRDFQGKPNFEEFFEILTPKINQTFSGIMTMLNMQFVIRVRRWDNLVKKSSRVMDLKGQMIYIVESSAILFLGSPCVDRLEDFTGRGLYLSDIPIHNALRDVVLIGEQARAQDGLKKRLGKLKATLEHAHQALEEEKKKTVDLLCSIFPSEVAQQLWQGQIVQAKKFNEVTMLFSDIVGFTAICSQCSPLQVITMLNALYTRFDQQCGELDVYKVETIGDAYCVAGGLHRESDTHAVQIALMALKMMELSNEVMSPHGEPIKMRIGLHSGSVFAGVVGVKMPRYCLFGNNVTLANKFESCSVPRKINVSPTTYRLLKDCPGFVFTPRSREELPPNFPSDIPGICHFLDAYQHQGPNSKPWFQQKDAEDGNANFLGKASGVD
Description: B-2. Action on Recombinant Guanylate Cyclase Reporter Cell Line
The cellular action of the compounds according to the invention is determined on a recombinant guanylate cyclase reporter cell line, as described in F. Wunder et al., Anal. Biochem. 339, 104-112 (2005).

[2] = target: T2, human phosphodiesterase 5 (PDE-5) (Homo sapiens, UniProt O76074); experiment: Inhibition of human phosphodiesterase 5 (PDE-5), SPA assay; format: biochemical; settings: PDE-5 preparation from human platelets, [8-3H]cGMP substrate
T2 construct: PDE-5 preparations are obtained from human platelets by lysis; from tissue; host or cells: human platelets
Description: B-6. Inhibition of Human Phosphodiesterase 5 (PDE-5)
PDE-5 preparations are obtained from human platelets by lysis (Microfluidizer®, 800 bar, 3 passages), followed by centrifugation (75000 g, 60 min, 4° C.) and ion-exchange chromatography of the supernatant on a Mono Q 10/10 column (linear sodium chloride gradient, elution with a 0.2-0.3M solution of sodium chloride in buffer (20 mM Hepes pH 7.2, 2 mM magnesium chloride). Fractions that have PDE-5 activity are combined (PDE-5 preparation) and stored at −80° C.
For determining their in-vitro action on human PDE-5, the test substances are dissolved in 100% DMSO and serial dilutions are prepared. Typically, dilution series (1:3) from 200 μM to 0.091 μM are prepared (resultant final concentrations in the test: 4 μM to 0.0018 μM). In each case 2 μL of the diluted solutions of the substance are put in the wells of microtitre plates (Isoplate-96/200W; Perkin-Elmer). Then 50 μL of a dilution of the PDE-5 preparation described above is added. The dilution of the PDE-5 preparation is selected so that during subsequent incubation less than 70% of the substrate is reacted (typical dilution: 1:100; dilution buffer: 50 mM Tris/hydrochloric acid pH 7.5, 8.3 mM magnesium chloride, 1.7 mM EDTA, 0.2% BSA). The substrate [8-^3H]cyclic guanosine-3′,5′-monophosphate (1 μCi/μL; Perkin-Elmer) is diluted 1:2000 with assay buffer (50 mM Tris/hydrochloric acid pH 7.5, 8.3 mM magnesium chloride, 1.7 mM EDTA) to a concentration of 0.0005 μCi/μL. The enzyme reaction is finally started by adding 50 μL (0.025 μCi) of the diluted substrate. The test preparations are incubated for 60 min at room temperature and the reaction is stopped by adding 25 μL of a suspension of 18 mg/mL of Yttrium Scintillation Proximity Beads in water (phosphodiesterase beads for SPA assays, RPNQ 0150, Perkin-Elmer). The microtitre plates are sealed with film and left to stand for 60 min at room temperature. Then the plates are measured for 30 s per well in a Microbeta scintillation counter (Perkin-Elmer). IC50 values are determined on the basis of the graphs plotted of the substance concentration versus the percentage PDE-5 inhibition.

Structure (SMILES) | MEC (minimal effective concentration) [1] [μm] | IC50 [2] [nM]
CC1(C)C(=O)Nc2nc(-c3nn(Cc4ccccc4F)c4ncccc34)nc(NCCC(N)=O)c21 [Example 73, N^3-{2-[1-(2-fluorobenzyl)-1H-pyrazolo[3,4-b]pyridin-3-yl]-5,5-dimethyl-6-oxo-6,7-dihydro-5H-pyrrolo[2,3-d]pyrimidin-4-yl}-beta-alaninamide] | 0.3 | 16
CC1(C)C(=O)Nc2nc(-c3nn(Cc4ccccc4F)c4ncccc34)nc(NCCn3ccnn3)c21 [Example 47, 2-[1-(2-fluorobenzyl)-1H-pyrazolo[3,4-b]pyridin-3-yl]-5,5-dimethyl-4-{[2-(1H-1,2,3-triazol-1-yl)ethyl]amino}-5,7-dihydro-6H-pyrrolo[2,3-d]pyrimidin-6-one] | 0.1 | 83
CN1CCN(c2nc(-c3nn(Cc4ccccc4F)c4ncccc34)nc3c2C(C)(C)C(=O)N3)CC1 [Example 70, 2-[1-(2-fluorobenzyl)-1H-pyrazolo[3,4-b]pyridin-3-yl]-5,5-dimethyl-4-(4-methylpiperazin-1-yl)-5,7-dihydro-6H-pyrrolo[2,3-d]pyrimidin-6-one] | 0.03 | 80
CC1(C)C(=O)Nc2nc(-c3nn(Cc4ccccc4F)c4ncccc34)nc(NCC3CC3)c21 [Example 43, 4-[(cyclopropylmethyl)amino]-2-[1-(2-fluorobenzyl)-1H-pyrazolo[3,4-b]pyridin-3-yl]-5,5-dimethyl-5,7-dihydro-6H-pyrrolo[2,3-d]pyrimidin-6-one] | 0.03 | 410
COC1CN(c2nc(-c3nn(Cc4ccccc4F)c4ncccc34)nc3c2C(C)(C)C(=O)N3)C1 [Example 53, 2-[1-(2-fluorobenzyl)-1H-pyrazolo[3,4-b]pyridin-3-yl]-4-(3-methoxyazetidin-1-yl)-5,5-dimethyl-5,7-dihydro-6H-pyrrolo[2,3-d]pyrimidin-6-one] | 3.0 | 150
CCN(CCOC)c1nc(-c2nn(Cc3ccccc3F)c3ncccc23)nc2c1C(C)(C)C(=O)N2 [Example 61, 4-[ethyl(2-methoxyethyl)amino]-2-[1-(2-fluorobenzyl)-1H-pyrazolo[3,4-b]pyridin-3-yl]-5,5-dimethyl-5,7-dihydro-6H-pyrrolo[2,3-d]pyrimidin-6-one] | 0.03 | 100
CC1(C)C(=O)Nc2nc(-c3nn(Cc4ccccc4F)c4ncccc34)nc(NCc3cccnc3)c21 [Example 84, 2-[1-(2-fluorobenzyl)-1H-pyrazolo[3,4-b]pyridin-3-yl]-5,5-dimethyl-4-[(pyridin-3-ylmethyl)amino]-5,7-dihydro-6H-pyrrolo[2,3-d]pyrimidin-6-one] | 0.1 | 19

The next lines start with the values.

MEC (minimal effective concentration) [1] [μm] | IC50 [2] [nM] | Structure (SMILES)
0.1 | 86 | CC(=O)NCCNc1nc(-c2nn(Cc3ccccc3F)c3ncccc23)nc2c1C(C)(C)C(=O)N2 [Example 44, N-[2-({2-[1-(2-fluorobenzyl)-1H-pyrazolo[3,4-b]pyridin-3-yl]-5,5-dimethyl-6-oxo-6,7-dihydro-5H-pyrrolo[2,3-d]pyrimidin-4-yl}amino)ethyl]acetamide]
0.03 | 130 | CC1(C)C(=O)Nc2nc(-c3nn(Cc4ccccc4F)c4ncccc34)nc(NCc3ccccn3)c21 [Example 55, 2-[1-(2-fluorobenzyl)-1H-pyrazolo[3,4-b]pyridin-3-yl]-5,5-dimethyl-4-[(pyridin-2-ylmethyl)amino]-5,7-dihydro-6H-pyrrolo[2,3-d]pyrimidin-6-one]
0.03 | 83 | CC1(C)C(=O)Nc2nc(-c3nn(Cc4cccc(F)c4F)c4ncc(F)cc34)nc(O)c21 [Example 116, 2-[1-(2,3-Difluorobenzyl)-5-fluoro-1H-pyrazolo[3,4-b]pyridin-3-yl]-4-hydroxy-5,5-dimethyl-5,7-dihydro-6H-pyrrolo[2,3-d]pyrimidin-6-one]
0.03 | 5 | CC1(C)C(=O)Nc2nc(-c3nn(Cc4ccccc4F)c4ncccc34)nc(N[C@@H]3CCCOC3)c21 [Example 51, 2-[1-(2-fluorobenzyl)-1H-pyrazolo[3,4-b]pyridin-3-yl]-5,5-dimethyl-4-(tetrahydro-2H-pyran-3-ylamino)-5,7-dihydro-6H-pyrrolo[2,3-d]pyrimidin-6-one]
0.01 | 170 | Cc1ccc(CNc2nc(-c3nn(Cc4ccccc4F)c4ncccc34)nc3c2C(C)(C)C(=O)N3)o1 [Example 41, 2-[1-(2-fluorobenzyl)-1H-pyrazolo[3,4-b]pyridin-3-yl]-5,5-dimethyl-4-{[(5-methylfuran-2-yl)methyl]amino}-5,7-dihydro-6H-pyrrolo[2,3-d]pyrimidin-6-one]
0.1 | 54 | Cn1ccc(CNc2nc(-c3nn(Cc4ccccc4F)c4ncccc34)nc3c2C(C)(C)C(=O)N3)n1 [Example 48, 2-[1-(2-fluorobenzyl)-1H-pyrazolo[3,4-b]pyridin-3-yl]-5,5-dimethyl-4-{[(1-methyl-1H-pyrazol-3-yl)methyl]amino}-5,7-dihydro-6H-pyrrolo[2,3-d]pyrimidin-6-one]
0.03 | 34 | COCCNc1nc(-c2nn(Cc3ccccc3F)c3ncccc23)nc2c1C(C)(C)C(=O)N2 [Example 56, 2-[1-(2-fluorobenzyl)-1H-pyrazolo[3,4-b]pyridin-3-yl]-4-[(2-methoxyethyl)amino]-5,5-dimethyl-5,7-dihydro-6H-pyrrolo[2,3-d]pyrimidin-6-one]
0.1 | 8 | Cn1cc(CNc2nc(-c3nn(Cc4ccccc4F)c4ncccc34)nc3c2C(C)(C)C(=O)N3)cn1 [Example 59, 2-[1-(2-fluorobenzyl)-1H-pyrazolo[3,4-b]pyridin-3-yl]-5,5-dimethyl-4-{[(1-methyl-1H-pyrazol-4-yl)methyl]amino}-5,7-dihydro-6H-pyrrolo[2,3-d]pyrimidin-6-one]
0.1 | 980 | CC1(C)C(=O)Nc2nc(-c3nn(Cc4ccccc4F)c4ncccc34)nc(N3CCCC3)c21 [Example 64, 2-[1-(2-fluorobenzyl)-1H-pyrazolo[3,4-b]pyridin-3-yl]-5,5-dimethyl-4-(pyrrolidin-1-yl)-5,7-dihydro-6H-pyrrolo[2,3-d]pyrimidin-6-one]
